Results on 1 compound are retold here after US11311576B2, “Methods of use for CAR T cells” (Seattle Children's Hospital, priority 2018, dated 2022).

For one series, the target named is T1, FRα (KB) (Homo sapiens, UniProt P15328).
T1 construct: endogenous in cells; host or cells: KB cells (human cervical carcinoma with HeLa markers)
Description: 3H-EC17 cell-based radioligand binding assay, KB cells. The settings on record: 2 h at 37° C. The method, then:
(§1) The bispecific affinities of EC17 CAM were assessed using ^3H-EC17 in cell-based radioligand binding assays. For binding to FR+ targets, KB and CHO-β cells were pre-seeded overnight in 24-well tissue culture plates and incubated with 0.1, 0.5, 1, 5, 10, 20, and 40 nM of ^3H-EC17 in FFRPMI for 2 h at 37° C. Afterwards, the cells were rinsed with phosphate-buffered saline (PBS, pH 7.4) and lysed with 1% sodium dodecylsulfate. The whole cell lysates were quantitated for the level of radioactivity and cellular protein content by standard Pierce BCA protein assay. The number of ^3H-EC17 molecules bound per cell was calculated to determine the dissociation constants (Kd) for FRα (KB) and FRβ (CHO-b) respectively (FIG. 56A, FIG. 56B).

A further series has as its system MDA-MB-231 tumors. The series is described as follows: Dietary folate effect on antitumor activity and CRS toxicity, MDA-MB-231 tumors. The class given is in vivo, NSG mice. The method, then:
To study the effect of high dietary folate (FIG. 63A, FIG. 63B, FIG. 63C, FIG. 63D), two sets of NSG mice were placed on either a FA-replete diet (4 mg/kg, Envigo, Indianapolis, Ind.) or a FA-deficient diet (TestDiet, St. Louis, Mo.) upon arrival. On day 0, both sets of the mice received ˜10 million of the same “clinical facsimile” CAR-T cells followed by no EC17 or EC17 SIW at 500 nmol/kg starting on day 3. On the first day of EC17 administration, MDA-MB-231 tumors size averaged around ˜549±184 mm^3 (280-918 mm3) in FA-replete mice, and ˜559±165 mm^3 (356-961 mm^3) in FA-deficient mice.
Previously, it was shown that administration of FA or a FA ligand helped reduce the severity of CRS in MDA-MB-231 tumor-bearing mice. To test the long-term effect of dietary folate, mice were maintained on defined diets for ˜73 days and used when their tumors reached ˜549±184 mm3 (280-918 mm^3) in FA-replete mice, and ˜559±165 mm^3 (356-961 mm^3) in FA-deficient mice (FIG. 63A, FIG. 63B, FIG. 63C, FIG. 63D).

Series [1] can be described thus: EC17/E2-CAR T-cell therapy in naïve NSG mice without tumor. The class given is in vivo. The settings on record: 10 million E2 CAR-T cells, EC17 500 nmol/kg x2 doses. The method, then: EGFRt-sorted anti-FITC E2 scFv-CAR T cells were frozen in a T-cell freezing medium. Vials of frozen CAR-T cells were immediately stored at −80° C. The CAR-T cells were quickly thawed at 37° C., washed twice with PBS, and used for animal injection at 10 million viable EGFRt+E2 CAR-T cells (CD4/CD8 at ˜1:1) per animal. A small aliquot was taken on the day infusion for flow cytometric analysis of E2-CAR T-cell phenotypes.
Mouse blood samples were processed for plasma and stored at −20° C. until use. A human TH1 cytokine panel (Biolegend, Cat. No. 740009) and a human hematopoietic stem cell cytokine panel (Biolegend, Cat. No. 740610) was used to detect human cytokines in the mouse blood. […]
Whole blood cell analysis: Plasma was removed from predetermined volumes of whole EDTA treated blood and RBCs were lysed with RBC lysis solution. […] Determination of the concentration of CAR T cells in each blood sample was calculated according to Invitrogen's instructions. CAR T cells were identified as human CD3ε+ EGFRt+ events and easily distinguished and counted using the Kaluza™ flow cytometry software. The number of CAR T cells in the circulation of each infused mouse was then represented on the graphs as the total number of CAR T cells per 100 μL of whole blood analyzed. Statistical significance was determined by utilizing an unpaired, two-tailed, students t30 test with significance set at p<0.05. […]

Another series has as its target T2, FRβ (CHO-b) (Homo sapiens, UniProt P14207).
T2 construct: expressed in transfected cells; host or cells: CHO (Chinese hamster ovary) cells
The series is described as follows: 3H-EC17 cell-based radioligand binding assay, CHO-β cells. The settings on record: 2 h at 37° C. The method, then:
as §1

Setting [2] is: FA-deficient diet, each subsequent EC17 dose.
Setting [3] is: FA-replete mice, CAR-T cells plus EC17.

T1 sequence (P15328 25-234): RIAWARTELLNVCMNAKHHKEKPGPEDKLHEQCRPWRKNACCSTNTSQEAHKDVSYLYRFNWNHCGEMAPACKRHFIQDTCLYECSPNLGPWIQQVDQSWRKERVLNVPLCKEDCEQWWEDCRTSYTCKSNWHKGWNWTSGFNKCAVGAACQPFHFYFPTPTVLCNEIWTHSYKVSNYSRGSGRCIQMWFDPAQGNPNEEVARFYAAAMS
T2 sequence (P14207 17-230): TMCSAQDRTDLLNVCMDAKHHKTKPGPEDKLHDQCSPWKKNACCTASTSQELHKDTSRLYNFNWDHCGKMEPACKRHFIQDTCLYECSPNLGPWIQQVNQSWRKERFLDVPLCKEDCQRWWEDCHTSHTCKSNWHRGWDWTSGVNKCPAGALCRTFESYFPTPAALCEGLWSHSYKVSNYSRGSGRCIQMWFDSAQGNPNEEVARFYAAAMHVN

A word on the Kd: it is a measure of binding affinity in units of concentration. Lower therefore signals higher affinity. At FRα (KB), `NC1=NC2N=CC(CNc3ccc(C(=O)N[C@@H](CCC(=O)NCCNC(=S)Nc4ccc(-c5c6ccc(=O)cc-6oc6cc(O)ccc56)c(C(=O)O)c4)C(=O)O)cc3)=NC2C(=O)N1` (some centres unmarked) [EC17, FA-(g)-ethylenediamine-FITC] yielded a Kd of 1.7 nM. In the series on MDA-MB-231 tumors (setting [2]), the CRS grade is recorded as 2-3 and the body weight loss is on record as at most 11.4%. Also, the cures in the series with MDA-MB-231 tumors (FA-deficient mice, CAR-T cells plus EC17) is 5/5. Moreover, in the series with MDA-MB-231 tumors (FA-replete diet, eight weekly EC17 doses of 500 nmol/kg), the “symptoms of CRS” value is “did not show symptoms of CRS”. Also, in the series with MDA-MB-231 tumors (setting [3]), the complete responses is listed as 2/5, the cures is 2/5 and the partial response is 1/5. Further, in the series with MDA-MB-231 tumors (~10 million clinical facsimile E2-CAR-T cells, EC17 500 nmol/kg, either diet), the “CRS or body weight loss after first full dose” value is recorded as “did not cause any CRS or body weight loss”. Also, in series [1], the “IFN-g production, difference between tumor-free and MDA-MB-231 tumor-bearing mice” value is 23 fold. The equilibrium dissociation constant (Kd) at FRβ (CHO-b) was found to be 0.8 nM.
